In general, IC50 refers to the concentration that gives 50% inhibition. Read a high IC50 as lower potency.

Results on 5 compounds are retold here after patent US20050113315A1, “Glucopyranosyloxybenzylbenzene derivatives, medicinal compositions containing the same and intermediates in the production thereof” (KISSEI PHARMACEUTICAL CO., LTD., priority 2000, published 2005).

The target in series [1] is T1, human SGLT2 (Homo sapiens, UniProt P31639, I433V).
T1 construct: expressed in transfected cells; host or cells: COS-7 cells (RIKEN CELL BANK RCB0539), transient electroporation with KL29
T1 sequence (P31639 1-672 I433V): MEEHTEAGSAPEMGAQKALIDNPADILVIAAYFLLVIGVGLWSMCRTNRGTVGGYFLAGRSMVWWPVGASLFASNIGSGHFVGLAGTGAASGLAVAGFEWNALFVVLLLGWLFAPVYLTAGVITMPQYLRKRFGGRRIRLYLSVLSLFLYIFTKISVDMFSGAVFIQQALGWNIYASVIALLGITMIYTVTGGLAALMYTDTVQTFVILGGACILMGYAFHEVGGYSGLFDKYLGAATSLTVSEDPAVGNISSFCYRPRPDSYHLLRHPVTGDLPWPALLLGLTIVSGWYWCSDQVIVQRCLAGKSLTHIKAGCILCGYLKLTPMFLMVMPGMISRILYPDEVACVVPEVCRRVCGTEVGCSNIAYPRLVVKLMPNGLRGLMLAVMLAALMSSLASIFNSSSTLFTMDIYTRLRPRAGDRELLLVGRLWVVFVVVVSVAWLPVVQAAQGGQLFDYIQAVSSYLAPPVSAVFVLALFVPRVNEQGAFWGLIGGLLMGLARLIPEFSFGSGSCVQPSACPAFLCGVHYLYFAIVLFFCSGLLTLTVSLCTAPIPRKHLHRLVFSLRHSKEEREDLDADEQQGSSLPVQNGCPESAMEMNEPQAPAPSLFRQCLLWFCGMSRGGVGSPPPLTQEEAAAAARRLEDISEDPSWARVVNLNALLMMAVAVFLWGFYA
Nature of the series: Assay for inhibitory effect on human SGLT2 activity (uptake of methyl-α-D-glucopyranoside in COS-7 cells transiently expressing human SGLT2). Type of series: cell-based. To be noted: uptake of methyl-α-D-(U-14C)-glucopyranoside, 37° C., 2 hours. The procedure: Assay for Inhibitory Effect on Human SGLT2 Activity
1) Construction of the Plasmid Vector Expressing Human SGLT2
Preparation of the cDNA library for PCR amplification was performed by reverse transcription of a total RNA deprived from human kidney (Ori gene) with oligo dT as the primer, using […] Preamplification System (Gibco-BRL: LIFE TECHNOLOGIES). The DNA fragment coding for human SGLT2 was amplified by the PCR reaction, in which the human kidney cDNA library described above was used as the template and the following oligo nucleotides 0702F and 0712R, presented as Sequence Number 1 and 2 respectively, were used as the primers. The amplified DNA fragment was ligated into pCR-Blunt (Invitrogen), a vector for cloning, according to standard method of the kit. The Escherichia coli HB101 (Toyobo) was transformed according to usual method and then selection of the transformants was performed on the LB agar medium containing 50 μg/mL of kanamycin. After the plasmid DNA was extracted and purified from the one of the transformants, amplifying of the DNA fragment coding for human SGLT2 was performed by the PCR reaction, in which the following oligo nucleotides 0714F and 0715R, presented as Sequence Number 3 and 4 respectively, were used as the primers. The amplified DNA fragment was digested with restriction enzymes, Xho I and Hind III, and then purified with Wizard Purification System (Promega). This purified DNA fragment was inserted at the corresponding restriction sites of pcDNA3.1 (−) Myc/His-B (Invitrogen), a vector for expressing of fusion protein. The Escherichia coli HB101 was transformed according to usual method and then selection of the transformant was performed on the LB agar medium containing 100 μg/mL of ampicillin. After the plasmid DNA was extracted and purified from this transformant, the base sequence of the DNA fragment inserted at the multi-cloning sites of pcDNA3.1 (−) Myc/His-B was analyzed. […] Sequentially, a clone in which valine is substituted for the isoleucine-433 was obtained. This plasmid vector expressing human SGLT2 in which the peptide presented as Sequence Number 5 is fused to the carboxyl terminal alanine residue was designated KL29.
2) Preparation of the Cells Expressing Transiently Human SGLT2
KL29, the plasmid coding human SGLT2, was transfected into COS-7 cells (RIKEN CELL BANK RCB0539) by electroporation. Electroporation was performed with GENE PULSER II (Bio-Rad Laboratories) under the condition: 0.290 kV, 975 μF, 2×10^6 cells of COS-7 cell and 20 μg of KL29 in 500 μL of OPTI-MEM I medium (Gibco-BRL: LIFE TECHNOLOGIES) in the 0.4 cm type cuvette. After the gene transfer, the cells were harvested by centrifugation and resuspended with OPTI-MEM I medium (1 mL/cuvette). To each well in 96-wells plate, 125 μL of this cell suspension was added. After overnight culture at 37° C. under 5% CO2, 125 μL of DMEM medium which is containing 10% of fetal bovine serum (Sanko Jyunyaku), 100 units/mL sodium penicillin G (Gibco-BRL: LIFE TECHNOLOGIES), 100 μg/mL streptomycin sulfate (Gibco-BRL: LIFE TECHNOLOGIES) was added to each well. After a culture until the following day, these cells were used for the measurement of the inhibitory activity against the uptake of methyl-α-D-glucopyranoside.
3) Measurement of the Inhibitory Activity Against the Uptake of methyl-α-D-glucopyranoside […]

Series [2] deals with SD rats. Nature of the series: Assay for the facilitatory effect on urinary glucose excretion. As to conditions: male SD rats, oral glucose 2 g/kg, urine collected 24 hours. The format is in vivo, rat. As to the method: Assay for the Facilitatory Effect on Urinary Glucose Excretion
As experimental animals, overnight fasted SD rats (Japan SLC. Inc., male, 7 weeks of age, 180-220 g) were used. Ten mg of a test compound was suspended or dissolved in 300 μL of ethanol and dissolved by adding 1.2 mL of polyethylene glycol 400 and 1.5 mL of saline to prepare a 3.3 mg/mL solution. A portion of this solution was diluted with a mixture (saline:polyethylene glycol 400:ethanol=5:4:1) to prepare 3.3, 0.33 and 0.033 mg/mL solution. After body weights of the rats were measured, the solution of test compound was intravenously injected to the tail vein at a dose of 3 mL/kg (10, 1, 0.1 mg/kg). For control, only a mixture (saline:polyethylene glycol 400:ethanol=5:4:1) was intravenously injected to the tail vein at a dose of 3 mL/kg. Immediately after intravenous injection to the tail vein, 200 g/L of aqueous glucose solution was orally administered to the rats at a dose of 10 mL/kg (2 g/kg). The intravenous injection to the tail vein was performed with 26 G injection needle and 1 mL syringe. The oral administration was performed with gastric tube for rat and 2.5 mL syringe. The head count in each group was 3. Collection of urine was performed in metabolic cage after the administration of glucose was finished. The sampling time for collection of urine was 24 hours after the administration of glucose. After the collection of urine was finished, the urine volume was recorded and the urinary glucose concentration was measured. The glucose concentration was measured with a kit for laboratory test: Glucose B-Test WAKO (Wako Pure Chemical Industries, Ltd.). The amount of urinary glucose excretion during 24 hours per 200 g of body weight was calculated from the urine volume, urinary glucose concentration and body weight.

The test system of series [3] is ICR mice. Kind of series: Acute toxicity test. Type of series: in vivo. To be noted: male ICR mice, 300 mg/kg subcutaneous, 5 animals in each group, observation for 24 hours. As to the method: A mixture (saline:polyethylene glycol 400:ethanol=5:4:1) was added to a test compound to prepare 30 mg/mL solution. As experimental animals, 5 week old male ICR mice (CLEA JAPAN, INC. 29-35 g, 5 animals in each group), which were fasted for 4 hours, were used. The above solution was subcutaneously administered at a dose of 10 mL/kg (300 mg/kg) to the above experimental animals and then observation for 24 hours was performed.

As for `Cc1cc(C)c(Cc2ccc(CCCO)cc2)c(O[C@@H]2O[C@H](CO)[C@@H](O)[C@H](O)[C@H]2O)c1` [Example 30, 2-[4-(3-Hydroxypropyl)benzyl]-3,5-dimethylphenyl β-D-glucopyranoside], the midpoint of inhibition in series [1], the IC50, lay at 30 nM. In other words, the double-digit nanomolar range. `Cc1cc(C)c(Cc2ccc(CCO)cc2)c(O[C@@H]2O[C@H](CO)[C@@H](O)[C@H](O)[C@H]2O)c1` [Example 31, 2-[4-(2-Hydroxyethyl)benzyl]-3,5-dimethylphenyl β-D-glucopyranoside] registered an IC50 in series [1] of 59 nM.

Compound `COc1ccc(Cc2c(C)cc(C)cc2O[C@@H]2O[C@H](CO)[C@@H](O)[C@H](O)[C@H]2O)cc1` [Example 37, 2-(4-Methoxybenzyl)-3,5-dimethylphenyl β-D-glucopyranoside] came in with an IC50 in series [1] of 290 nM. Moreover, the “Amount of Urinary Glucose Excretion” value was 15 mg/24 hours/200 g body weight in series [2] (0.1 mg/kg intravenous), 125 mg/24 hours/200 g body weight in series [2] (1 mg/kg intravenous) and 288 mg/24 hours/200 g body weight in series [2] (10 mg/kg intravenous). For the same compound, in series [3], the Death number is recorded as 0/5. In series [1], `CCc1ccc(Cc2ccc(N)cc2O[C@@H]2O[C@H](CO)[C@@H](O)[C@H](O)[C@H]2O)cc1` [Example 29, 5-Amino-2-(4-ethylbenzyl)phenyl β-D-glucopyranoside] registered an IC50 of 10 nM. `OC/C=C/c1ccc(Cc2ccccc2O[C@@H]2O[C@H](CO)[C@@H](O)[C@H](O)[C@H]2O)cc1` [Example 19, (E)-2-[4-(3-hydroxy-1-prop-1-ene-1-yl)benzyl]phenyl β-D-glucopyranoside] yielded an IC50 in series [1] of 120 nM.
